Experimental data from patent US20210369677A1, “SMALL MOLECULE ACTIVATORS OF POLYCYSTIN-2 (PKD2) AND USES THEREOF” (Northwestern University, priority 2020, published 2021).

Biological target: T1, polycystin-2 (Homo sapiens, UniProt Q13563)
T1 construct: expressed in transfected cells
T1 sequence (Q13563 1-968): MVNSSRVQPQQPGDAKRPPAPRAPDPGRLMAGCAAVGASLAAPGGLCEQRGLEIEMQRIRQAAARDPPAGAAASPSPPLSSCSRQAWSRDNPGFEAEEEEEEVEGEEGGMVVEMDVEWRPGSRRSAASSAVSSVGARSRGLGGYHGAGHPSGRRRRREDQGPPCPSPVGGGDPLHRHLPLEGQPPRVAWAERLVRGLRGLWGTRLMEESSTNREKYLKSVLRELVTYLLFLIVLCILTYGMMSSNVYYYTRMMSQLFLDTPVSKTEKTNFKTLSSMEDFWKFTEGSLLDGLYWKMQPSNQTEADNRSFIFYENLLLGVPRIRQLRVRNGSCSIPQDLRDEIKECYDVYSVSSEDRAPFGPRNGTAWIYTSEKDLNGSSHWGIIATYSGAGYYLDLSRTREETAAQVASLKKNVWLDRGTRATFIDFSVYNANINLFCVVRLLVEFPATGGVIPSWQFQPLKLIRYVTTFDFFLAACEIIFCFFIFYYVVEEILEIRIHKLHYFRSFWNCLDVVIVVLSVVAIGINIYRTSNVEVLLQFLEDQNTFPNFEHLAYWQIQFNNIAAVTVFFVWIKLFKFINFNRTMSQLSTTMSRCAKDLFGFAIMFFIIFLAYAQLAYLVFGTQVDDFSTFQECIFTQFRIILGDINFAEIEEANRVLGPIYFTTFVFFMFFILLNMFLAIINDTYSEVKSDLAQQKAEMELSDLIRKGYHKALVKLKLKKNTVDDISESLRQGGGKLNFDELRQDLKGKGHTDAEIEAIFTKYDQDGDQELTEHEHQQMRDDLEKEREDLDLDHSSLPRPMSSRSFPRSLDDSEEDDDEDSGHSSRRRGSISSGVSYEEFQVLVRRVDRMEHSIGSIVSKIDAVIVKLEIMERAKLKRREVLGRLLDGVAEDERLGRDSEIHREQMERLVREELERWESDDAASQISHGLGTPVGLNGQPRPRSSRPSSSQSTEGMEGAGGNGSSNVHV
Assay type: cell-based
Details: for Effect of external disulfide reducing agents on wild type polycystin-2 current: whole cilia configuration
From the text: Generation of HEK PKD2^Null cells line and the stable expression PKD2 variants. To generate the HEK PKD2^Null cell lines, we used a CRISPR/Cas9 gene editing kit available from Addgene (kit 1000000055). HEK 293 cells were electro-transfected with sgRNAs (caccg[…] and aaac[…]c) with the All-in-one Cas9 plasmid. […] Cells generated from single cell clones were selected after 4 weeks of expansion in a 96-wells plate. […] To generate the WT and variant PKD2 GFP or mCherry C-terminally tagged variant cell lines, the hPKD gene was subcloned into lentiviral pLVX-mcherry-N1 (Clontech) or pLVX-GFP-N1 (Clontech) vector using the Gibson assembly method. A linker encoding for six glycine residues was added between the PKD2 gene and the C-terminal tags, and missense variants were generated using standard, site-directed mutagenesis. The third-generation lentiviral packaging plasmids used for stable expression contained: pMDLg/pRRE (Addgene), […] pRSV-Rev (Addgene), and envelope expressing plasmid pMD2.G (Addgene). LentiX-293T cells (Takara) were transfected with polyethylineimine (Polysciences) at a 4:1:1:1 ratio of the transgene and viral packaging constructs. Supernatants were collected 48 and 72 hours post transfection and filtered through a 0.45 μm syringe filter. Lentiviral supernatant was concentrated 100 times using 1 volume of PEG-it (System Biosciences) virus precipitation solution and 4 volume of lentivirus-containing supernatant. The PEG-it and supernatant mixture were kept at 4 degrees for 24 hours and centrifuged at 1500 rpm for 30 minutes. The pellet containing lentivirus was resuspended with 1/100th volume of PBS of the original supernatant volume. HEK cells were infected with the lentivirus supernatant; PKD2-GFP or PKD2-mCherry expression was selected using culture media containing puromycin (2 μg/ml) for 30 to 90 days. Cells were then fluorescence-activated cell sorted (BD FacsMelody) at 5000 to 10,000 counts per minute to enrich for the transgene expression. Stable cell lines were cultured in Dulbecco's modified essential medium (DMEM) supplemented with 10% fetal bovine serum (FBS) and 100 units/ml penicillin, 100 units/ml streptomycin and 1 μg/ml puromycin selection antibiotic.
Electrophysiology. Ciliary ion currents were recorded using borosilicate glass electrodes polished to resistances of 14-22 MΩ using the cilium patch method previously described^32. Whole cell electrodes used to measure poly cystin-2L1 currents were fire polished to 1.5-4 MΩ resistances. Unless otherwise stated, whole cilia ionic currents were recorded in symmetrical [Na^+]. The pipette standard internal solution contained (in mM): 90 NaMES, 10 NaCl, 10 HEPES, 10 Na4-BAPTA (Glycine, N, N′-[1,2-ethanediylbis(oxy-2,1-phenylene)]bis[N-(carboxymethyl)]-,tetrasodium); pH was adjusted to 7.3 using NaOH. Standard bath solution contained 140 NaCl, 10 HEPES, 1.8 CaCl2); pH 7.4. All solutions were osmotically balanced to 295 (±6) mOsm with mannitol. Extracellular solutions containing TCEP and GSH were used within six hours of formulation. Data were collected using an Axopatch 200B patch clamp amplifier, Digidata 1440A, and pClamp 10 software. Whole-cilium and excised patch currents were digitized at 25 kHz and low-pass filtered at 10 kHz. In the whole cilium configuration, the holding potential was −60 mV and then depolarized using a 400 ms voltage ramp from −100 mV to 100 mV. The whole cell recordings of polycystin-2L1 currents were either activated by the same ramp protocol or by 100 ms depolarizations to 100 mV from a −100 mV holding potential.

| SMILES | Block of ciliary WT polycystin-2 currents by trivalent ions (10 μM, voltage ramps) | Effect of external disulfide reducing agents on wild type polycystin-2 current |
| --- | --- | --- |
| [Gd] [gadolinium] | blocked | – |
| N[C@@H](CCC(=O)N[C@@H](CS)C(=O)NCC(=O)O)C(=O)O [GSH, reduced glutathione] | – | near instantaneous reduction |
| O=C(O)CCP(CCC(=O)O)CCC(=O)O [TCEP, tris-2-carboxyethyl phosphine] | – | near instantaneous reduction |
